Results reported in PubChem BioAssay AID1963968 (Molecular Pharmacology Branch, DTP, NCI, 2024).

Test system: 945468-187-T-J3-PDC spheroids with HUVEC/MSC, viability
Assay: Anticancer human tumor 945468-187-T-J3-PDC patient-derived rectal carcinoma cell line growth inhibition [PI3K]
Settings: for IC50: curve of first compound; for viability, T/C: stronger effect = lower value
In short: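 Viability of mixed-cell spheroids was determined after exposure to pairwise combinations, one partner being inavolisib, alpelisib, duvelisib or copanlisib. Highest tested concentration matched clinical Cmax where known and 10 microM where not, descending in half-log steps.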

[1] = second compound 0.0316 µM, first compound 0.0316 µM
[2] = second compound 0.0316 µM, first compound 0.1 µM
[3] = second compound 0.0316 µM, first compound 0.316 µM
[4] = second compound 0.0316 µM, first compound 1 µM
[5] = second compound 0.0316 µM, first compound 3.16 µM
[6] = second compound 0.0316 µM, first compound 10 µM
[7] = second compound 0.1 µM, first compound 0.0316 µM
[8] = second compound 0.1 µM, first compound 0.1 µM
[9] = second compound 0.1 µM, first compound 0.316 µM
[10] = second compound 0.1 µM, first compound 1 µM
[11] = second compound 0.1 µM, first compound 3.16 µM
[12] = second compound 0.1 µM, first compound 10 µM
[13] = second compound 0.316 µM, first compound 0.0316 µM
[14] = second compound 0.316 µM, first compound 0.1 µM
[15] = second compound 0.316 µM, first compound 0.316 µM
[16] = second compound 0.316 µM, first compound 1 µM
[17] = second compound 0.316 µM, first compound 3.16 µM
[18] = second compound 0.316 µM, first compound 10 µM
[19] = second compound 1 µM, first compound 0.0316 µM
[20] = second compound 1 µM, first compound 0.1 µM
[21] = second compound 1 µM, first compound 0.316 µM
[22] = second compound 1 µM, first compound 1 µM
[23] = second compound 1 µM, first compound 3.16 µM
[24] = second compound 1 µM, first compound 10 µM
[25] = second compound 3.16 µM, first compound 0.0316 µM
[26] = second compound 3.16 µM, first compound 0.1 µM
[27] = second compound 3.16 µM, first compound 0.316 µM
[28] = second compound 3.16 µM, first compound 1 µM
[29] = second compound 3.16 µM, first compound 3.16 µM
[30] = second compound 3.16 µM, first compound 10 µM
[31] = second compound 10 µM, first compound 0.0316 µM
[32] = second compound 10 µM, first compound 0.1 µM
[33] = second compound 10 µM, first compound 0.316 µM
[34] = second compound 10 µM, first compound 1 µM
[35] = second compound 10 µM, first compound 3.16 µM
[36] = second compound 10 µM, first compound 10 µM
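Further: spheroids exposed to agents for 7 days before viability read.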
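Wherever viability, T/C is given: 100% = DMSO vehicle control viability.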

Work on `C=CC(=O)N1CCN(c2nc(=O)n(-c3c(C)ccnc3C(C)C)c3nc(-c4c(O)cccc4F)c(F)cc23)C(C)C1` (stereo not drawn) + CC(Nc1ncnc2nc[nH]c12)c1cc2cccc(Cl)c2c(=O)n1-c1ccccc1 yielded an IC50 (second compound 0.0316 µM) greater than 10 µM, an IC50 (second compound 0.1 µM) greater than 10 µM and an IC50 (second compound 0.316 µM) greater than 10 µM. For the same molecule, the IC50 (second compound 1 µM) was greater than 10 µM, the IC50 (second compound 3.16 µM) was greater than 10 µM and the IC50 (second compound 10 µM) was greater than 10 µM. The viability, T/C [1] was 91.9%, the viability, T/C [2] was 92.9% and the viability, T/C [3] was 104%. It also gave a viability, T/C [4] of 96.4%, a viability, T/C [5] of 96.6% and a viability, T/C [6] of 98.3%. The viability, T/C [7] was 94.7%, the viability, T/C [8] was 103% and the viability, T/C [9] was 100%. It also gave a viability, T/C [10] of 92.6%, a viability, T/C [11] of 107% and a viability, T/C [12] of 95.9%. The viability, T/C [13] was 94.8%, the viability, T/C [14] was 92.9% and the viability, T/C [15] was 88.5%. The viability, T/C [16] was 91.6%, the viability, T/C [17] was 106% and the viability, T/C [18] was 99.3%. The viability, T/C [19] was 99.3%, the viability, T/C [20] was 105% and the viability, T/C [21] was 94.8%. For the same molecule, the viability, T/C [22] was 94.1%, the viability, T/C [23] was 107% and the viability, T/C [24] was 95.8%. The viability, T/C [25] was 90.5%, the viability, T/C [26] was 99.6% and the viability, T/C [27] was 101%. For the same molecule, the viability, T/C [28] was 110%, the viability, T/C [29] was 97.2% and the viability, T/C [30] was 93.4%. The viability, T/C [31] was 104%, the viability, T/C [32] was 91.1% and the viability, T/C [33] was 97.9%. The viability, T/C [34] was 97.6%, the viability, T/C [35] was 116% and the viability, T/C [36] was 93.9%.
`CC(Cn1ccc(-c2ccc(C#N)c(Cl)c2)n1)NC(=O)c1cc(C(C)O)[nH]n1` (stereo not drawn) + CC(Nc1ncnc2nc[nH]c12)c1cc2cccc(Cl)c2c(=O)n1-c1ccccc1 showed an IC50 (second compound 0.0316 µM) greater than 10 µM, an IC50 (second compound 0.1 µM) greater than 10 µM and an IC50 (second compound 0.316 µM) greater than 10 µM. It also gave an IC50 (second compound 1 µM) greater than 10 µM, an IC50 (second compound 3.16 µM) greater than 10 µM and an IC50 (second compound 10 µM) greater than 10 µM. For the same molecule, the viability, T/C [1] was 93.4%, the viability, T/C [2] was 104% and the viability, T/C [3] was 126%. For the same molecule, the viability, T/C [4] was 91.3%, the viability, T/C [5] was 125% and the viability, T/C [6] was 94%. The viability, T/C [7] was 91.1%, the viability, T/C [8] was 95.5% and the viability, T/C [9] was 89.5%. For the same molecule, the viability, T/C [10] was 91.4%, the viability, T/C [11] was 114% and the viability, T/C [12] was 105%. It also gave a viability, T/C [13] of 95.5%, a viability, T/C [14] of 100% and a viability, T/C [15] of 118%. For the same molecule, the viability, T/C [16] was 97.9%, the viability, T/C [17] was 101% and the viability, T/C [18] was 106%. The viability, T/C [19] was 87.8%, the viability, T/C [20] was 108% and the viability, T/C [21] was 98.1%. It also gave a viability, T/C [22] of 93%, a viability, T/C [23] of 104% and a viability, T/C [24] of 94.8%. For the same molecule, the viability, T/C [25] was 94.8%, the viability, T/C [26] was 102% and the viability, T/C [27] was 96.5%. For the same molecule, the viability, T/C [28] was 112%, the viability, T/C [29] was 113% and the viability, T/C [30] was 110%. For the same molecule, the viability, T/C [31] was 122%, the viability, T/C [32] was 99.1% and the viability, T/C [33] was 98.2%. It also gave a viability, T/C [34] of 96.7%, a viability, T/C [35] of 104% and a viability, T/C [36] of 91.2%.
With `Cn1ncc(Cl)c1-c1cc(C(=O)NC(CN)Cc2cccc(F)c2)sc1Cl` (stereo not drawn) + CC(Nc1ncnc2nc[nH]c12)c1cc2cccc(Cl)c2c(=O)n1-c1ccccc1 the IC50 (second compound 0.0316 µM) was 1.72 µM, the IC50 (second compound 0.1 µM) was 2.39 µM and the IC50 (second compound 0.316 µM) was 1.97 µM. The IC50 (second compound 1 µM) was 1.34 µM, the IC50 (second compound 3.16 µM) was 1.73 µM and the IC50 (second compound 10 µM) was 1.14 µM. The viability, T/C [1] was 101%, the viability, T/C [2] was 96% and the viability, T/C [3] was 99.9%. It also gave a viability, T/C [4] of 59.3%, a viability, T/C [5] of 44.9% and a viability, T/C [6] of 33.5%. It also gave a viability, T/C [7] of 94.9%, a viability, T/C [8] of 104% and a viability, T/C [9] of 88.2%. The viability, T/C [10] was 60.5%, the viability, T/C [11] was 51.5% and the viability, T/C [12] was 38.2%. The viability, T/C [13] was 106%, the viability, T/C [14] was 97.3% and the viability, T/C [15] was 87.3%. The viability, T/C [16] was 62.1%, the viability, T/C [17] was 41.2% and the viability, T/C [18] was 28.6%. It also gave a viability, T/C [19] of 112%, a viability, T/C [20] of 89.5% and a viability, T/C [21] of 86.2%. For the same molecule, the viability, T/C [22] was 48.6%, the viability, T/C [23] was 39% and the viability, T/C [24] was 28.5%. The viability, T/C [25] was 107%, the viability, T/C [26] was 97.7% and the viability, T/C [27] was 86.5%. The viability, T/C [28] was 57.6%, the viability, T/C [29] was 40.7% and the viability, T/C [30] was 24.6%. For the same molecule, the viability, T/C [31] was 107%, the viability, T/C [32] was 75.9% and the viability, T/C [33] was 84.2%. For the same molecule, the viability, T/C [34] was 44.5%, the viability, T/C [35] was 35% and the viability, T/C [36] was 20.1%.
With `Cn1nccc1Nc1nccc(-c2ccn(C(CO)c3ccc(Cl)c(F)c3)c(=O)c2)n1` (stereo not drawn) + CC(Nc1ncnc2nc[nH]c12)c1cc2cccc(Cl)c2c(=O)n1-c1ccccc1 the IC50 (second compound 0.0316 µM) was greater than 10 µM, the IC50 (second compound 0.1 µM) was greater than 10 µM and the IC50 (second compound 0.316 µM) was greater than 10 µM. For the same molecule, the IC50 (second compound 1 µM) was greater than 10 µM, the IC50 (second compound 3.16 µM) was greater than 10 µM and the IC50 (second compound 10 µM) was greater than 10 µM. For the same molecule, the viability, T/C [1] was 126%, the viability, T/C [2] was 108% and the viability, T/C [3] was 117%. For the same molecule, the viability, T/C [4] was 107%, the viability, T/C [5] was 113% and the viability, T/C [6] was 132%. For the same molecule, the viability, T/C [7] was 94.3%, the viability, T/C [8] was 101% and the viability, T/C [9] was 113%. For the same molecule, the viability, T/C [10] was 116%, the viability, T/C [11] was 117% and the viability, T/C [12] was 116%. The viability, T/C [13] was 93.3%, the viability, T/C [14] was 107% and the viability, T/C [15] was 111%. The viability, T/C [16] was 114%, the viability, T/C [17] was 116% and the viability, T/C [18] was 139%. It also gave a viability, T/C [19] of 113%, a viability, T/C [20] of 127% and a viability, T/C [21] of 102%. It also gave a viability, T/C [22] of 121%, a viability, T/C [23] of 118% and a viability, T/C [24] of 136%. For the same molecule, the viability, T/C [25] was 108%, the viability, T/C [26] was 109% and the viability, T/C [27] was 106%. The viability, T/C [28] was 120%, the viability, T/C [29] was 116% and the viability, T/C [30] was 122%. The viability, T/C [31] was 104%, the viability, T/C [32] was 108% and the viability, T/C [33] was 111%. It also gave a viability, T/C [34] of 123%, a viability, T/C [35] of 108% and a viability, T/C [36] of 123%.
